From US20210353593A1 (Chinook Therapeutics, Inc., priority 2019, published 2021)

System: hallmark gene sets in kidney tissue of g-ddY mice
Assay: Gene Set Enrichment Analysis (GSEA) of hallmark gene sets, g-ddY mouse kidney RNA-seq
Assay type: in vivo

CCCCN(CCCC)C(=O)CN1C[C@H](c2ccc3c(c2)OCO3)[C@@H](C(=O)O)[C@@H]1c1ccc(OC)cc1 [Atrasentan, (2R,3R,4S)-4-(1,3-benzodioxol-5-yl)-1-[2-(dibutylamino)-2-oxoethyl]-2-(4-methoxyphenyl)pyrrolidine-3-carboxylic acid]
HALLMARK_ADIPOGENESIS NES (10 mg/kg/day vs. control): 2.15 | HALLMARK_ALLOGRAFT_REJECTION NES (10 mg/kg/day vs. control): −2.25 | HALLMARK_ANDROGEN_RESPONSE NES (10 mg/kg/day vs. control): 0.88 | HALLMARK_ANGIOGENESIS NES (10 mg/kg/day vs. control): −1.94 | HALLMARK_APICAL_JUNCTION NES (10 mg/kg/day vs. control): −1.79 | HALLMARK_APICAL_SURFACE NES (10 mg/kg/day vs. control): −1.52 | HALLMARK_APOPTOSIS NES (10 mg/kg/day vs. control): −1.59 | HALLMARK_BILE_ACID_METABOLISM NES (10 mg/kg/day vs. control): 2.08 | HALLMARK_CHOLESTEROL_HOMEOSTASIS NES (10 mg/kg/day vs. control): 1.03 | HALLMARK_COAGULATION NES (10 mg/kg/day vs. control): −1.53 | HALLMARK_COMPLEMENT NES (10 mg/kg/day vs. control): −1.51 | HALLMARK_DNA_REPAIR NES (10 mg/kg/day vs. control): 0.79 | HALLMARK_E2F_TARGETS NES (10 mg/kg/day vs. control): −2.07 | HALLMARK_EPITHELIAL_MESENCHYMAL_TRANSITION NES (10 mg/kg/day vs. control): −2.47 | HALLMARK_ESTROGEN_RESPONSE_EARLY NES (10 mg/kg/day vs. control): −1.27 | HALLMARK_ESTROGEN_RESPONSE_LATE NES (10 mg/kg/day vs. control): −1.18 | HALLMARK_FATTY_ACID_METABOLISM NES (10 mg/kg/day vs. control): 2.25 | HALLMARK_G2M_CHECKPOINT NES (10 mg/kg/day vs. control): −2.15 | HALLMARK_GLYCOLYSIS NES (10 mg/kg/day vs. control): 1.62 | HALLMARK_HEDGEHOG_SIGNALING NES (10 mg/kg/day vs. control): −1.51 | HALLMARK_HEME_METABOLISM NES (10 mg/kg/day vs. control): 1.57 | HALLMARK_HYPOXIA NES (10 mg/kg/day vs. control): −1.38 | HALLMARK_IL2_STAT5_SIGNALING NES (10 mg/kg/day vs. control): −1.77 | HALLMARK_IL6_JAK_STAT3_SIGNALING NES (10 mg/kg/day vs. control): −2.34 | HALLMARK_INFLAMMATORY_RESPONSE NES (10 mg/kg/day vs. control): −2.34 | HALLMARK_INTERFERON_ALPHA_RESPONSE NES (10 mg/kg/day vs. control): −1.96 | HALLMARK_INTERFERON_GAMMA_RESPONSE NES (10 mg/kg/day vs. control): −2.26 | HALLMARK_KRAS_SIGNALING_DN NES (10 mg/kg/day vs. control): 1.28 | HALLMARK_KRAS_SIGNALING_UP NES (10 mg/kg/day vs. control): −2.24 | HALLMARK_M ITOTIC_SPINDLE NES (10 mg/kg/day vs. control): −1.55 | HALLMARK_MTORC1_SIGNALING NES (10 mg/kg/day vs. control): 1.11 | HALLMARK_MYC_TARGETS_V1 NES (10 mg/kg/day vs. control): −1.17 | HALLMARK_MYC_TARGETS_V2 NES (10 mg/kg/day vs. control): −0.780 | HALLMARK_MYOGENESIS NES (10 mg/kg/day vs. control): −1.19 | HALLMARK_NOTCH_SIGNALING NES (10 mg/kg/day vs. control): 0.83 | HALLMARK_OXIDATIVE_PHOSPHORYLATION NES (10 mg/kg/day vs. control): 3.06 | HALLMARK_P53_PATHWAY NES (10 mg/kg/day vs. control): −1.12 | HALLMARK_PANCREAS_BETA_CELLS NES (10 mg/kg/day vs. control): 0.85 | HALLMARK_PEROXISOME NES (10 mg/kg/day vs. control): 1.68 | HALLMARK_PI3K_AKT_MTOR SIGNALING NES (10 mg/kg/day vs. control): −0.92 | HALLMARK_PROTEIN_SECRETION NES (10 mg/kg/day vs. control): 1.06 | HALLMARK_REACTIVE_OXYGEN_SPECIES_PATHWAY NES (10 mg/kg/day vs. control): 1.59 | HALLMARK_SPERMATOGENESIS NES (10 mg/kg/day vs. control): 0.89 | HALLMARK_TGF_BETA_SIGNALING NES (10 mg/kg/day vs. control): −1.72 | HALLMARK_TNFA_SIGNALING_VIA_NFKB NES (10 mg/kg/day vs. control): −2.55 | HALLMARK_UNFOLDED_PROTEIN_RESPONSE NES (10 mg/kg/day vs. control): −0.91 | HALLMARK_UV_RESPONSE_DN NES (10 mg/kg/day vs. control): −2.19 | HALLMARK_UV_RESPONSE_UP NES (10 mg/kg/day vs. control): 1.28 | HALLMARK_WNT_BETA_CATENIN_SIGNALING NES (10 mg/kg/day vs. control): −1.02 | HALLMARK_XENOBIOTIC_METABOLISM NES (10 mg/kg/day vs. control): 1.95 | HALLMARK_ADIPOGENESIS NES (20 mg/kg/day vs. control): 2.26 | HALLMARK_ALLOGRAFT_REJECTION NES (20 mg/kg/day vs. control): −2.90 | HALLMARK_ANDROGEN_RESPONSE NES (20 mg/kg/day vs. control): 1.03 | HALLMARK_ANGIOGENESIS NES (20 mg/kg/day vs. control): −2.19 | HALLMARK_APICAL_JUNCTION NES (20 mg/kg/day vs. control): −2.24 | HALLMARK_APICAL_SURFACE NES (20 mg/kg/day vs. control): −1.67 | HALLMARK_APOPTOSIS NES (20 mg/kg/day vs. control): −2.17 | HALLMARK_BILE_ACID_METABOLISM NES (20 mg/kg/day vs. control): 2.39 | HALLMARK_CHOLESTEROL_HOMEOSTASIS NES (20 mg/kg/day vs. control): −1.03 | HALLMARK_COAGULATION NES (20 mg/kg/day vs. control): −2.11 | HALLMARK_COMPLEMENT NES (20 mg/kg/day vs. control): −2.01 | HALLMARK_DNA_REPAIR NES (20 mg/kg/day vs. control): 0.83 | HALLMARK_E2F_TARGETS NES (20 mg/kg/day vs. control): −2.34 | HALLMARK_EPITHELIAL_MESENCHYMAL_TRANSITION NES (20 mg/kg/day vs. control): −2.92 | HALLMARK_ESTROGEN_RESPONSE_EARLY NES (20 mg/kg/day vs. control): −1.52 | HALLMARK_ESTROGEN_RESPONSE_LATE NES (20 mg/kg/day vs. control): −1.37 | HALLMARK_FATTY_ACID_METABOLISM NES (20 mg/kg/day vs. control): 2.51 | HALLMARK_G2M_CHECKPOINT NES (20 mg/kg/day vs. control): −2.26 | HALLMARK_GLYCOLYSIS NES (20 mg/kg/day vs. control): 1.53 | HALLMARK_HEDGEHOG_SIGNALING NES (20 mg/kg/day vs. control): −1.72 | HALLMARK_HEME_METABOLISM NES (20 mg/kg/day vs. control): 1.92 | HALLMARK_HYPOXIA NES (20 mg/kg/day vs. control): −1.62 | HALLMARK_IL2_STAT5_SIGNALING NES (20 mg/kg/day vs. control): −2.20 | HALLMARK_IL6_JAK_STAT3_SIGNALING NES (20 mg/kg/day vs. control): −2.92 | HALLMARK_INFLAMMATORY_RESPONSE NES (20 mg/kg/day vs. control): −2.96 | HALLMARK_INTERFERON_ALPHA_RESPONSE NES (20 mg/kg/day vs. control): −2.44 | HALLMARK_INTERFERON_GAMMA_RESPONSE NES (20 mg/kg/day vs. control): −2.88 | HALLMARK_KRAS_SIGNALING_DN NES (20 mg/kg/day vs. control): 1.32 | HALLMARK_KRAS_SIGNALING_UP NES (20 mg/kg/day vs. control): −2.65 | HALLMARK_M ITOTIC_SPINDLE NES (20 mg/kg/day vs. control): −1.79 | HALLMARK_MTORC1_SIGNALING NES (20 mg/kg/day vs. control): 1.23 | HALLMARK_MYC_TARGETS_V1 NES (20 mg/kg/day vs. control): −0.81
